Measured values from patent US20130041005A1, “PHARMACEUTICAL COMPOSITIONS COMPRISING NEUROPILIN INHIBITORS, AND THEIR USE FOR THE PREVENTION AND/OR TREATMENT OF ANGIOGENIC DISORDERS AND CANCERS” (TRAGEX PHARMA, priority 2011, published 2013).

Biological target: T1, NRP-1 (Homo sapiens, UniProt O14786)
T1 construct: purchased R&D Systems, UK 3870-N1-025
T1 sequence (O14786 22-644 isoform O14786-2 limits assumed): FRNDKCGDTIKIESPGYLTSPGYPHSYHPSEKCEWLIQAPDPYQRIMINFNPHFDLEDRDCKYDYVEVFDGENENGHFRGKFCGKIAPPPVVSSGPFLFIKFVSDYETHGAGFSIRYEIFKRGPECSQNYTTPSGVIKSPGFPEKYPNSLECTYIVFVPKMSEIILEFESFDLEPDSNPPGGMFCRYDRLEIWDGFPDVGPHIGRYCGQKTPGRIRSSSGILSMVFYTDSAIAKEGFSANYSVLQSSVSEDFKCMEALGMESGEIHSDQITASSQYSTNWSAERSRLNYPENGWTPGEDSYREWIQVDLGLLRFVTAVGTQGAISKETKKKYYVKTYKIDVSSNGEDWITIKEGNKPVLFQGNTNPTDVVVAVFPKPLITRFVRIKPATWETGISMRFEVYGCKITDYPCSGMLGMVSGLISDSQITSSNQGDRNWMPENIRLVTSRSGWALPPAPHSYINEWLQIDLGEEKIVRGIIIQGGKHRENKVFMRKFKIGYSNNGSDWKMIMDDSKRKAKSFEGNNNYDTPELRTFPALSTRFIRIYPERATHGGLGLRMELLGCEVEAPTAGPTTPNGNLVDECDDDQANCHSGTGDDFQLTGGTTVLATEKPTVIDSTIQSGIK
Test: ELISA inhibition of VEGF binding to NRP-1
Conditions: for inhibition at 10 µM: compounds at 10 μM
Description: Elisa test was performed covering a 96-well microplate (BD Biosciences, France, cat no 353046) surface with 100 μl of 1×PBS, pH 7.4 with Ca^2+ and Mg^2+, (Lonza, France, cat no 17-513F/12) solution containing 0.2 μg/ml of VEGF-R1 (R&D Systems, UK, cat no 321-FL-050/CF) or 2 μg/ml of NRP-1 (R&D Systems, UK, cat no 3870-N1-025) or NRP-2 (R&D Systems, UK, cat no […]). The plate was sealed and incubated overnight at 4° C. After 3 washes with 200 μl of 1×PBS 0.5% (v/v) Tween 20 (Sigma, France, cat no 34078) (Buffer A), the plate was blocked by adding 200 μl of 1×PBS with 0.5% (w/v) BSA (Eurobio, France, cat no GAUBSA01-65) and agitated at 37° C. for 2 h. After washing five times with Buffer A, 50 μl/well of the compounds of the invention at 10 μM were added for the specific signal and 50 μl/well for the non-specific and max binding signal and incubated at 37° C. for 1 hour, shacking. 50 μl of btVEGF (R&D Systems, UK, cat no NFVEO) at […] for NRP-1/4 μg/ml Heparin (Sigma, USA, cat no H3393-10KU), 300 μg/ml for NRP-2 and 100 μg/ml for VEGF-R1 solution was added to each well; the plate was sealed and incubated at 37° C. for 2 h, shacking. The last incubation was carried out, after five washes with Buffer A, adding 100 μl/well Streptavidin-Horseradish Peroxidase (Amersham, Switzerland, cat no RPN4401) diluted 1:8000 with buffer A. After 1 h shacking at 37° C. under obscurity, the plate was washed 5 times with buffer A and 100 μl of SuperSignal west picochemiluminescent substrate (Interchim, USA cat no 34078) were added. Luminescence was quantified with an EnVision™ 2101 Multilabel reader (Perkin Elmer, USA) and the data analyzed by Wallac Envision manager software. Signal is given as relative light units (RLU). Non-specific binding is defined as the signal measured in the absence of receptor coated on the microplate. The specific binding was calculated as the difference between total binding and non-specific binding. The percentage of inhibition was calculated as following: […]

| SMILES | IC50 | inhibition at 10 µM |
| --- | --- | --- |
| Cc1ccc(-c2nc3ccccc3[nH]2)cc1NC(=S)NC(=O)c1ccc2c(c1)OCCO2 [Compound 1, N-[5-(1H-benzimidazol-2-yl)-2-methylphenyl]-N′-(2,3-dihydro-1,4-benzodioxin-6-ylcarbonyl)thiourea] | 38 ± 2.08 µM | 35 ± 4% |
| O=C(NC(=S)Nc1cccc(-c2nc3ccccc3[nH]2)c1)c1ccc2c(c1)OCCO2 [Compound 2, N-[3-(1H-benzimidazol-2-yl)phenyl]-N′-(2,3-dihydro-1,4-benzodioxin-6-ylcarbonyl)thiourea] | 34 ± 3.11 µM | 24 ± 2% |
